Source: patent publication US9282741B2, “Aniline type compounds” (BASF SE, priority 2011, dated 2016)

system: not listed separately; assay: log P determination via capillary electrophorese (cePro9600); format: physicochemical; conditions: pH = 10.0
Description: log P determinations were performed via capillary electrophorese on a cePro9600™ from CombiSep.

| SMILES | logP |
| --- | --- |
| CCCS(C)=NC(=O)c1cc(I)cc(C)c1NC(=O)c1cc(Br)nn1-c1ncccc1Cl (racemic) [compound 272] | logP: 3.2 [pH = 10.0] |
| CCCCCS(CCO)=NC(=O)c1cc(Cl)cc(C)c1NC(=O)c1cc(C(F)(F)F)nn1-c1ncccc1Cl (centres unmarked) [compound 48] | logP: 3.6 [pH = 10.0]; |
| C#CCOc1cc(C(=O)Nc2c(C)cc(I)cc2C(=O)N=S(CCO)CCCCC)n(-c2ncccc2Cl)n1 (centres unmarked) [compound 195] | logP: 3.5 [pH = 10.0] |
| C#CCOc1cc(C(=O)Nc2c(C)cc(I)cc2C(=O)N=S(C(C)C)C(C)C)n(-c2ncccc2Cl)n1 [compound 196] | logP: 3.1 [pH = 10.0] |
| C#CCOc1cc(C(=O)Nc2c(C)cc(Cl)cc2C(=O)N=S(C(C)C)C(C)C)n(-c2ncccc2Cl)n1 [compound 197] | logP: 2.7 [pH = 10.0] |
| C#CCOc1cc(C(=O)Nc2c(C)cc(Cl)cc2C(=O)N=S(C)c2ccc(F)cc2)n(-c2ncccc2Cl)n1 (centres unmarked) [compound 201] | logP: 2.9 [pH = 10.0] |
| C#CCOc1cc(C(=O)Nc2c(C)cc(I)cc2C(=O)N=S(C)c2ccc(F)cc2)n(-c2ncccc2Cl)n1 (centres unmarked) [compound 204] | logP: 3.4 [pH = 10.0] |
| C#CCOc1cc(C(=O)Nc2c(C)cc(Cl)cc2C(=O)N=S2CCCCC2)n(-c2ncccc2Cl)n1 [compound 209] | logP: 2.8 [pH = 10.0] |
| CCCS(C)=NC(=O)c1cccc(C)c1NC(=O)c1cc(C(F)(F)F)nn1-c1ncccc1Cl (centres unmarked) [compound 211] | logP: 2.8 [pH = 10.0]; |
| CCCCCS(CCO)=NC(=O)c1cccc(C)c1NC(=O)c1cc(C(F)(F)F)nn1-c1ncccc1Cl (centres unmarked) [compound 213] | logP: 3.4 [pH = 10.0]; |
| Cc1cccc(C(=O)N=S(C(C)C)C(C)C)c1NC(=O)c1cc(C(F)(F)F)nn1-c1ncccc1Cl [compound 214] | logP: 2.7 [pH = 10.0]; |
| Cc1cccc(C(=O)N=S(C)c2ccc(F)cc2)c1NC(=O)c1cc(C(F)(F)F)nn1-c1ncccc1Cl (centres unmarked) [compound 215] | logP: 3.2 [pH = 10.0]; |
| C#CCOc1cc(C(=O)Nc2c(C)cc(Cl)cc2C(=O)N=S(CCO)CCCCC)n(-c2ncccc2Cl)n1 (centres unmarked) [compound 216] | logP: 3.3 [pH = 10.0] |
| Cc1cccc(C(=O)N=S2CCCC2)c1NC(=O)c1cc(Br)nn1-c1ncccc1Cl [compound 222] | logP: 2.1 [pH = 10.0] |
| CCS(C)=NC(=O)c1cc(I)cc(C)c1NC(=O)c1cc(Br)nn1-c1ncccc1Cl (centres unmarked) [compound 223] | logP: 3.1 [pH = 10.0]; |
| CCS(C)=NC(=O)c1cc(Cl)cc(C)c1NC(=O)c1cc(Br)nn1-c1ncccc1Cl (centres unmarked) [compound 224] | logP: 2.7 [pH = 10.0]; |
| Cc1cc(Cl)cc(C(=O)N=S(C)c2ccc(F)cc2)c1NC(=O)c1cc(Br)nn1-c1ncccc1Cl (centres unmarked) [compound 235] | logP: 3.2 [pH = 10.0]; |
| Cc1cccc(C(=O)N=S(C(C)C)C(C)C)c1NC(=O)c1cc(Br)nn1-c1ncccc1Cl [compound 236] | logP: 2.3 [pH = 10.0]; |
| Cc1cccc(C(=O)N=S(C)c2ccc(F)cc2)c1NC(=O)c1cc(Br)nn1-c1ncccc1Cl (centres unmarked) [compound 237] | logP: 2.7 [pH = 10.0]; |
| Cc1cc(I)cc(C(=O)N=S(C)c2ccc(F)cc2)c1NC(=O)c1cc(Br)nn1-c1ncccc1Cl (centres unmarked) [compound 238] | logP: 3.5 [pH = 10.0]; |
| CCCS(C)=NC(=O)c1cc(Cl)cc(C)c1NC(=O)c1cc(Br)nn1-c1ncccc1Cl (centres unmarked) [compound 242] | logP: 2.9 [pH = 10.0]; |
| Cc1cc(Cl)cc(C(=O)N=S(C(C)C)C(C)C)c1NC(=O)c1cc(Br)nn1-c1ncccc1Cl [compound 243] | logP: 2.9 [pH = 10.0] |
| CCCCCS(CCO)=NC(=O)c1cccc(C)c1NC(=O)c1cc(Br)nn1-c1ncccc1Cl (centres unmarked) [compound 250] | logP: 2.9 [pH = 10.0] |
| CCCCCS(CCO)=NC(=O)c1cc(I)cc(C)c1NC(=O)c1cc(Br)nn1-c1ncccc1Cl (centres unmarked) [compound 252] | logP: 3.7 [pH = 10.0] |
| Cc1cc(I)cc(C(=O)N=S(C(C)C)C(C)C)c1NC(=O)c1cc(Br)nn1-c1ncccc1Cl [compound 257] | logP: 3.3 [pH = 10.0]; |
| CCCCCS(CCO)=NC(=O)c1cc(Cl)cc(C)c1NC(=O)c1cc(Br)nn1-c1ncccc1Cl (centres unmarked) [compound 258] | logP: 3.4 [pH = 10.0]; |
| C=CS(CC)=NC(=O)c1cccc(C)c1NC(=O)c1cc(Br)nn1-c1ncccc1Cl (centres unmarked) [compound 261] | logP: 2.1 [pH = 10.0]; |
| CCCS(C)=NC(=O)c1cccc(C)c1NC(=O)c1cc(Br)nn1-c1ncccc1Cl (centres unmarked) [compound 263] | logP: 2.3 [pH = 10.0]; |
| CCS(CCCl)=NC(=O)c1cc(I)cc(C)c1NC(=O)c1cc(Br)nn1-c1ncccc1Cl (centres unmarked) [compound 268] | logP: 3.2 [pH = 10.0]; |
| Cc1cccc(C(=O)N=S(C)C)c1NC(=O)c1cc(Br)nn1-c1ncccc1Cl [compound 274] | logP: 1.9 [pH = 10.0]; |

The remaining lines, values ahead:

| logP | SMILES |
| --- | --- |
| logP: 3.2 [pH = 10.0] | CCCS(C)=NC(=O)c1cc(Cl)cc(C)c1NC(=O)c1cc(C(F)(F)F)nn1-c1ncccc1Cl (centres unmarked) [compound 11] |
| logP: 3.3 [pH = 10.0]. | Cc1cc(Cl)cc(C(=O)N=S(C(C)C)C(C)C)c1NC(=O)c1cc(C(F)(F)F)nn1-c1ncccc1Cl [compound 24] |
| logP: 3.2 [pH = 10.0]; | Cc1cc(I)cc(C(=O)N=S(C)C)c1NC(=O)c1cc(C(F)(F)F)nn1-c1ncccc1Cl [compound 31] |
| logP: 3.3 [pH = 10.0]; | CCS(C)=NC(=O)c1cc(I)cc(C)c1NC(=O)c1cc(C(F)(F)F)nn1-c1ncccc1Cl (centres unmarked) [compound 33] |
| logP: 3.6 [pH = 10.0]; | Cc1cc(I)cc(C(=O)N=S2CCCCC2)c1NC(=O)c1cc(C(F)(F)F)nn1-c1ncccc1Cl [compound 71] |
| logP: 3.6 [pH = 10.0]; | CCCS(C)=NC(=O)c1cc(I)cc(C)c1NC(=O)c1cc(C(F)(F)F)nn1-c1ncccc1Cl (centres unmarked) [compound 93] |
| logP: 2.9 [pH = 10.0]; | Cc1cc(Cl)cc(C(=O)N=S(C)C)c1NC(=O)c1cc(C(F)(F)F)nn1-c1ncccc1Cl [compound 110] |
| logP: 3.9 [pH = 10.0]; | CCCCCS(CCO)=NC(=O)c1cc(I)cc(C)c1NC(=O)c1cc(C(F)(F)F)nn1-c1ncccc1Cl (centres unmarked) [compound 113] |
| logP: 3.4 [pH = 10.0]; | Cc1cc(I)cc(C(=O)N=S(C(C)C)C(C)C)c1NC(=O)c1cc(C(F)(F)F)nn1-c1ncccc1Cl [compound 120] |
| logP: 3.5 [pH = 10.0]; | Cc1cc(I)cc(C(=O)N=S2CCSC2)c1NC(=O)c1cc(C(F)(F)F)nn1-c1ncccc1Cl (centres unmarked) [compound 129] |
| logP: 3.1 [pH = 10.0]; | Cc1cc(I)cc(C(=O)N=S2CCCC2)c1NC(=O)c1cc(C(F)(F)F)nn1-c1ncccc1Cl [compound 137] |
| logP: 2.9 [pH = 10.0]; | CCS(C)=NC(=O)c1cc(Cl)cc(C)c1NC(=O)c1cc(C(F)(F)F)nn1-c1ncccc1Cl (centres unmarked) [compound 152] |
| logP: 2.2 [pH = 10.0]; | Cc1cccc(C(=O)N=S(C)C)c1NC(=O)c1cc(C(F)(F)F)nn1-c1ncccc1Cl [compound 199] |
| logP: 2.5 [pH = 10.0] | C#CCOc1cc(C(=O)Nc2c(C)cc(Cl)cc2C(=O)N=S2CCSC2)n(-c2ncccc2Cl)n1 (centres unmarked) [compound 200] |
| logP: 2.5 [pH = 10.0]; | CCS(C)=NC(=O)c1cccc(C)c1NC(=O)c1cc(C(F)(F)F)nn1-c1ncccc1Cl (centres unmarked) [compound 210] |
| logP: 3.3 [pH = 10.0]; | Cc1cc(I)cc(C(=O)N=S2CCSC2)c1NC(=O)c1cc(Br)nn1-c1ncccc1Cl (centres unmarked) [compound 221] |
| logP: 2.9 [pH = 10.0]; | Cc1cc(I)cc(C(=O)N=S2CCCC2)c1NC(=O)c1cc(Br)nn1-c1ncccc1Cl [compound 246] |
| logP: 3.4 [pH = 10.0]; | Cc1cc(I)cc(C(=O)N=S2CCCCC2)c1NC(=O)c1cc(Br)nn1-c1ncccc1Cl [compound 267] |

system: Tobacco Budworm (Heliothis virescens); assay: Tobacco budworm (Heliothis virescens) I, foliar spray on cotton plants; format: in vivo; conditions: 800 ppm, 4 days after treatment
Description: B.3 Tobacco Budworm (Heliothis virescens) I
The active compounds are formulated in cyclohexanone as a 10,000 ppm solution supplied in tubes. The tubes are inserted into an automated electrostatic sprayer equipped with an atomizing nozzle and they serve as stock solutions for which lower dilutions are made in 50% acetone:50% water (v/v). A nonionic surfactant (Kinetic®) is included in the solution at a volume of 0.01% (v/v).
Cotton plants are grown 2 plants to a pot and selected for treatment at the cotyledon stage. Test solutions are sprayed onto the foliage by an automated electrostatic plant sprayer equipped with an atomizing spray nozzle. The plants are dried in the sprayer fume hood and then removed from the sprayer. Each pot is placed into perforated plastic bags with a zip closure. About 10 to 11 budworm larvae are placed into the bag and the bags zipped closed. Test plants are maintained in a growth room at about 250C and about 20-40% relative humidity for 4 days, avoiding direct exposure to fluorescent light (24 hour photoperiod) to prevent trapping of heat inside the bags. Mortality and reduced feeding are assessed 4 days after treatment, compared to untreated control plants.

| SMILES | mortality in comparison with untreated controls |
| --- | --- |
| CCCS(CCC)=NC(=O)c1cc(Cl)cc(Cl)c1N [S.22] | over 75% |

system: vetch aphid (Megoura viciae); assay: Vetch aphid (Megoura viciae) broad bean leaf disk microtiter test; format: in vivo; conditions: 1415 ppm; broad bean leaf disks; 5 days
Description: B.2 Vetch Aphid (Megoura viciae)
For evaluating control of vetch aphid (Megoura viciae) through contact or systemic means the test unit consists of 24-well-microtiter plates containing broad bean leaf disks.
The compounds are formulated using a solution containing 75% v/v water and 25% v/v DMSO. Different concentrations of formulated compounds are sprayed onto the leaf disks at 2.5 μl, using a custom built micro atomizer, at two replications.
After application, the leaf disks are air-dried and 5-8 adult aphids placed on the leaf disks inside the microtiter plate wells. The aphids are then allowed to suck on the treated leaf disks and incubated at about […] and about 50±5% relative humidity for 5 days. Aphid mortality and fecundity is then visually assessed.

| SMILES | mortality in comparison with untreated controls |
| --- | --- |
| CCS(CC1CC1)=NC(=O)c1cc(Cl)cc(C)c1N (centres unmarked) [S.9] | over 75% |
